Test [1] deals with E. coli DH10B pBC SK(+) empty. Briefly: MIC susceptibility testing, empty vector control. The note with it: Escherichia coli.
In test [2] the target is T1, purified PenA1 β-lactamase (Burkholderia multivorans, UniProt A0A0H3KN52).
T1 sequence (A0A0H3KN52 28-302): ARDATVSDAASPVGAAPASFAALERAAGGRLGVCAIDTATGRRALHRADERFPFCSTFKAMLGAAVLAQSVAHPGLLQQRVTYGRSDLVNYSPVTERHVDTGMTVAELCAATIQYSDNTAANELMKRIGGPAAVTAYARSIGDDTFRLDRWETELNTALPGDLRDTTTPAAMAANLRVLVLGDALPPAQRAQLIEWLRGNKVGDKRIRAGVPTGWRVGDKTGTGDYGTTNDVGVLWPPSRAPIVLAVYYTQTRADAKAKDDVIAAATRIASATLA
Kind of test: Acylation rate k2/K. It counts as biochemical. To be noted: acylation rate (kinact/KI or k2/K), nitrocefin 100 μM reporter.

Test [3] addresses T1, purified PenA1 β-lactamase. Briefly: Steady-state inhibition kinetics, Ki-app, purified enzyme. The format is biochemical. To be noted: read-out: Km nitrocefin, used for correction of Ki-app.

≈ marks a conversion by molar mass, not a printed value.

Consider `CCN1CCN(C(=O)N[C@@H](C(=O)N[C@@H]2C(=O)N3[C@@H]2SC(C)(C)[C@@H]3C(=O)O)c2ccccc2)C(=O)C1=O` [Piperacillin], for which, in test [1], inhibition of growth (MIC) required 2 mg/L (≈ 3.86 µM).
Turning to `O=C(O)[C@H]1/C(=C/CO)O[C@@H]2CC(=O)N21` [clavulanic acid], the k2/K in test [2] lay within 340 to 2e+06 M⁻¹ s⁻¹.
With `Cn1cc[n+](C[C@@]2(C)[C@H](C(=O)[O-])N3C(=O)C[C@H]3S2(=O)=O)n1` [enmetazobactam], the k2/K in test [2] is on record as 6.3 ± 2.0 × 10^5 M^−1 s^−1.
For `O=C(Cc1cccs1)N[C@@H]1C(=O)N2C(C(=O)O)=C(/C=C/c3ccc([N+](=O)[O-])cc3[N+](=O)[O-])CS[C@H]12` [nitrocefin], in test [3], the Km is 147 µM.

The term MIC denotes the smallest concentration in the dilution series that meets the test's criterion for growth inhibition. Read a low MIC as inhibition by little substance. For orientation: Km means the substrate concentration at which the rate is half of its maximum.

The record behind these values is PMC8324038 (ACS infectious diseases, 2021).
